From ChEMBL document CHEMBL1201862, “PubChem BioAssay data set” (2004)
Values joined by “and” are separate entries in the source; they are usually repeats but may differ in a detail not shown here. Equal values may be shown once.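 Method: 48-hour compound exposure of cells in 96-well plates, five concentrations, linear interpolation of endpoints. GI50 is the concentration that inhibits growth by half.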 Active and inactive are the calls of the source. Rule as the data show it: active = GI50 up to about 1.1 µM and inactive = higher.

Assays:
Assay in all cases: NCI tumour cell line growth inhibition, 48 h
CAKI-1 = tested on: CAKI-1
EKVX = tested on: EKVX
HOP-62 = tested on: HOP-62
HOP-92 = tested on: HOP-92
HT-29 = tested on: HT-29
LOX IMVI = tested on: LOX IMVI
M14 = tested on: M14
MCF7 = tested on: MCF7
MDA-MB-231 = tested on: MDA-MB-231
NCI-H23 = tested on: NCI-H23
NCI-H460 = tested on: NCI-H460
OVCAR-4 = tested on: OVCAR-4
PC-3 = tested on: PC-3
SN12C = tested on: SN12C
T47D = tested on: T47D
TK-10 = tested on: TK-10
U-251 = tested on: U-251
UACC-257 = tested on: UACC-257
UACC-62 = tested on: UACC-62

Measured: GI50

CC1CNC(c2ccc(COc3ccc(C4=NC(C)CN4)cc3)cc2)=N1 (stereo not given)
inactive: CAKI-1 > 100 µM | EKVX > 100 µM | HOP-62 32.8 µM | HOP-92 > 100 µM | HT-29 > 100 µM | LOX IMVI > 100 µM | M14 60.1 µM | MCF7 18.3 µM | MDA-MB-231 45.9 µM | NCI-H23 53.3 µM | NCI-H460 23.4 µM | OVCAR-4 > 100 µM | PC-3 32.1 µM | SN12C 17.6 µM | T47D 15.5 µM | TK-10 65.9 µM | U-251 28.5 µM | UACC-257 16.9 µM | UACC-62 26.2 µM

CCN(CC)CCOC(c1cc(OC)ccc1OC)c1ccc2n1-c1ccccc1OC2 (stereo not given)
inactive: CAKI-1 14.9 µM | EKVX 16.1 µM | HOP-62 16.4 µM | HOP-92 1.89 µM | HT-29 3.41 µM | LOX IMVI 11.5 µM | M14 15.7 µM | MCF7 14.6 µM | MDA-MB-231 2.09 µM | NCI-H23 12.9 µM | NCI-H460 12.4 µM | OVCAR-4 13.9 µM | PC-3 12.8 µM | SN12C 2.48 µM | T47D 24 µM | TK-10 12.1 µM | U-251 14.9 µM | UACC-257 16 µM | UACC-62 2.39 µM

CCn1cc(C(=O)O)c(=O)c2cc3c(cc21)S(=O)(=O)CC3
inactive: CAKI-1 > 100 µM | EKVX > 100 µM | HOP-62 > 100 µM | HOP-92 > 100 µM | HT-29 > 100 µM | LOX IMVI > 100 µM | M14 > 100 µM | MCF7 > 100 µM | MDA-MB-231 > 100 µM | NCI-H23 > 100 µM | NCI-H460 > 100 µM | OVCAR-4 > 100 µM | PC-3 > 100 µM | SN12C > 100 µM | T47D > 100 µM | TK-10 > 100 µM | U-251 24.2 µM | UACC-257 > 100 µM | UACC-62 > 100 µM

O=C(c1ccc(O)c([N+](=O)[O-])c1)c1ccc(O)c([N+](=O)[O-])c1
inactive: CAKI-1 > 100 µM | EKVX > 100 µM | HOP-62 > 100 µM | HOP-92 24 µM | HT-29 > 100 µM | LOX IMVI > 100 µM | M14 > 100 µM | MCF7 93.1 µM | MDA-MB-231 > 100 µM | NCI-H23 > 100 µM | NCI-H460 > 100 µM | OVCAR-4 > 100 µM | PC-3 66.5 µM | SN12C > 100 µM | T47D > 100 µM | TK-10 > 100 µM | U-251 > 100 µM | UACC-257 81.7 µM | UACC-62 37.1 µM

COC(=O)[C@H](Cc1ccccc1)NC(=O)[C@H](Cc1ccccc1)NC(=O)CN1C(=O)[C@@H]2C3C=CC(C3)[C@@H]2C1=O
inactive: CAKI-1 16.7 µM and 18.6 µM | EKVX 19.8 µM and 18.7 µM | HOP-62 19.7 µM and 18.7 µM | HOP-92 18.3 µM and 20.6 µM | HT-29 19.2 µM and 20 µM | LOX IMVI 18.3 µM and 17.9 µM | M14 19.9 µM and 18.6 µM | MCF7 18.5 µM and 17.8 µM | MDA-MB-231 17.3 µM and 17 µM | NCI-H23 17.6 µM and 17.2 µM | NCI-H460 21.2 µM and 20.6 µM | OVCAR-4 16.1 µM and 19 µM | PC-3 15.6 µM and 16.4 µM | SN12C 18.2 µM and 16.7 µM | T47D 21.9 µM and 21.7 µM | TK-10 18.9 µM and 17.5 µM | U-251 16.4 µM and 17.6 µM | UACC-257 17.6 µM and 16.4 µM | UACC-62 16.4 µM and 16.6 µM
